Bridges are numbered along the chain shown (N, C = ends). Where no end group is shown, it is not given here.

Experiment [1] deals with IL-1β:IL-1RI:IL-1RAcP complex (Homo sapiens, UniProt P01584+P14778). The experiment is described as follows: Receptor complex immunoprecipitation pull-down with IL-1β western blot. In kind it is biochemical. The settings on record: for IL-1β pull down inhibition: concentration not given. As for the experimental part: IL-1β (20 ng μl^−1), IL-1RI (100 ng μl^−1), and 6xHis-tagged IL-1RAcP (40 ng μl^−1) were incubated with parent Peptide 1.0, a peptide variant, or the antibody inhibitor at various concentrations in 50 μl of PBS for 1 h at room temperature under rotation. In parallel, IL-1β, IL-1RI, and 6xHis-tagged IL-1RAcP were allowed to interact without parent Peptide 1.0 as a positive control. IL-1β by itself acted as a negative control. BcMag Protein G Magnetic Beads (50 μl, Bioclone) were washed 3 times with washing buffer (57.7 mM Na2HPO4, 42.3 mM NaH2PO4, pH 7.0), incubated with anti-6xHis mouse monoclonal antibody (1 μg, Abcam) for 30 min under rotation, isolated with neodymium magnets, and washed three times with washing buffer (57.7 mM Na2HPO4, 42.3 mM NaH2PO4, pH 7.0). Protein complex mixtures were incubated with the anti-His antibody decorated magnetic beads for 1 h at room temperature under rotation. Magnetic beads were separated (neodymium magnets) and washed 3X with buffer (57.7 mM Na2HPO4, 42.3 mM NaH2PO4, pH 7.0). Immunoprecipitated proteins were eluted with 20 μl of 4X sample buffer (10 min, 70°C) and analyzed by western blotting (anti-IL1β antibody).
SDS-PAGE was used to separate the immune-precipitated proteins in a 4–20% Tris-Glycine gel for 90 min at 125 V. The proteins were transferred for 2 h at 25 V onto an Immobilion PVDF membrane. After blocking the membrane using PBS containing 0.2% (w/v) I-Block and 0.1% Tween 20 for 1 h at room temperature (or overnight at 4°C), the membrane was subjected to a 2-h incubation with an anti-IL1β antibody (1:1,000, Cell Signaling Technology) while undergoing continuous agitation. The membrane was washed with PBS containing 0.1% Tween 20, then subjected to a 1-h incubation with the secondary anti-mouse horseradish-peroxidase-conjugated anti-IgG antibody (1:10,000, Invitrogen). The western blot was developed using a chemiluminescence system (SuperSignal^TM West Dura Extended Duration Substrate) and imaged using a Kodak 4000MM system.
Statistical tests (One-way ANOVA with Dunnett's Multiple Comparison adjustment) and non-linear regression of the dose response pull down peptide inhibition data were performed using GraphPad Prism.
For orientation: In western blotting, separated proteins are transferred to a membrane and probed.

Experiment [2] concerns IL-1β signaling in HEK-Blue IL-1β cells. The experiment is described as follows: HEK-Blue IL-1β reporter cell assay (SEAP). It is filed as cell-based, human. Particulars: 2 μM peptide; IL-1β 2.5 ng/ml; triplicate. The protocol:
HEK 293 reporter cells for human IL-1β (HEK-Blue IL-1β cells, Invivogen) were used to test the ability of peptide variants to inhibit IL-1β signaling pathway. HEK-Blue IL-1β cells were used according to manufacturer instructions. HEK-Blue IL-1β cells were cultured in Dulbecco's modified Eagle's medium (DMEM, Gibco) additioned with 10% heat inactivated fetal bovine serum (ATCC), 4.5 g/l glucose (Sigma), and 2 mM L-glutamine (ATCC) at 37°C, 5% CO2, in a humidified environment. HEK-Blue IL-1β cells (5,000 cells/well) were plated into 96-well tissue culture plates. The following day, cells were pre-treated for 1 h with peptide variants (Peptides 1.0, 1.1, 1.2, 2.0, 3.0, 4.0, and 4.3) or soluble IL-1RAcP (2 ng/μL) as a positive control. The cells were then stimulated with IL-1β at 2.5 ng/ml for 30 min. Following stimulation, the medium was changed and the inhibitors were added again to the plate. The cells were then left to incubate overnight. The next day, 160 μl of QUANTI-Blue (Invivogen) were added to each well. The plate was incubated at 37°C for 1 h. Then, the plate was placed in a spectrophotometer to detect the levels of secreted embryonic alkaline phosphatase (SEAP) in each well at a wavelength of 625–655 nm. Each peptide was tested in triplicate and an ANOVA test with Dunnett's test for multiple comparisons was performed to determine significance of inhibition.

The target in experiment [3] is T1, interleukin 1β (IL-1β) (UniProt P01584 117-269).
T1 construct: interleukin 1β used at 20 ng/µl in the pull-down; Species is surmised as human: PDB 4DEP was used for modelling, the reporter cells are for human IL-1β and the MS search used the human database
The experiment is described as follows: pull-down; IL-1β (20 ng/µl), IL-1RI (100 ng/µl) and 6xHis-tagged IL-1RAcP (40 ng/µl) incubated with or without peptide at various concentrations in 50 µl PBS, 1 h, room temperature; captured on anti-6xHis antibody on Protein G magnetic beads; washed in phosphate buffer pH 7.0; western blot with anti-IL-1β; band intensity relative to the control without peptide. The settings on record: both partners purified.

Experiment [4] addresses T1, interleukin 1β (IL-1β). The experiment is described as follows: cell-based or functional assay.

Chain of IL-1β:IL-1RI:IL-1RAcP complex (P01584 117-269): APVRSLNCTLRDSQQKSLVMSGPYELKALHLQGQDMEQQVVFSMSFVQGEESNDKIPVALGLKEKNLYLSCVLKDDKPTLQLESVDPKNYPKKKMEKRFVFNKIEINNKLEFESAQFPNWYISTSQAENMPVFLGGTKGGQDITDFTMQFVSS
Chain of IL-1β:IL-1RI:IL-1RAcP complex (P14778 18-332 limits assumed): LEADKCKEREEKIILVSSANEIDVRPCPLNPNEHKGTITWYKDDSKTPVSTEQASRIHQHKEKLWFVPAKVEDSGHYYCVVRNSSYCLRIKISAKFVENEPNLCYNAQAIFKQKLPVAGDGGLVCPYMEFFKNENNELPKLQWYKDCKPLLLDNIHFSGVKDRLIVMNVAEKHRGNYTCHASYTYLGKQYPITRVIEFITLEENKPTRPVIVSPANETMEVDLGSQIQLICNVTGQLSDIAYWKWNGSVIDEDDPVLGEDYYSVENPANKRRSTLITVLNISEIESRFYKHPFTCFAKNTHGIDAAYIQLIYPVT

Molecule “TINESISHS R TEDETRTQILS [Peptide 1.0, synthetic peptide mimicking IL-1RAcP Arg286 hot spot region]” displayed an IL-1β pull down in experiment [1] (12.5 nM peptide, relative to positive control without inhibitor) of 60%. Besides, the “reduction of IL-1β pull down” value in experiment [1] (124 and 62 nM peptide) is given as 26–30%. Further, the “IL-1β pull down inhibition” value in experiment [1] is “higher than 45%”.

On to “TINESISHS A TEDETRTQILS [Peptide 2.0, negative control peptide with alanine instead of arginine in position 286]”, for which the “IL-1β in the pulled-down fraction, % of positive control” value in experiment [1] (25 nM peptide) was determined as 99%.

As for “T C NESISHS R TEDETRTQ C LS (disulfide) [Peptide 1.2, cyclized Peptide 1.0 variant, cycle length 18]”, the entries for the “IL-1β concentration in the pulled down fraction, % of positive control” value in experiment [1] (0.4 nM peptide), in experiment [1] (4 nM peptide) and in experiment [1] (40 nM peptide) were 60%, 51% and 35%, respectively. The “IL-1β pull down inhibition” value in experiment [1] was “higher than 45%”. Also, in experiment [2], the “difference in inhibition of IL-1β signaling versus Peptide 1.0” value turned out to be 28%.

“T C N Q SISHS R T QNQ TRTQ C LS (disulfide) [Peptide 4.2, cyclized Gln/Asn variant, cycle length 18]”: the “IL-1β concentration in the pulled down fraction, % of positive control” value in experiment [1] (0.04 nM peptide) is 102%; in experiment [1] (40 nM peptide), 36%. In experiment [1], the “IL-1β pull down inhibition” value is recorded as “higher than 45%”. Besides, the “difference in inhibition of IL-1β signaling versus Peptide 1.0” value in experiment [2] was found to be 42%.

On to TINESISHSRTEDETRMQILS [Peptide 3.0], for which the “IL-1β concentration in the pulled down fraction, % of positive control” value in experiment [1] (0.04 nM peptide) stood at 112%. Moreover, in experiment [1] (40 and 4 nM peptide, relative to positive control without inhibitor), the “IL-1β pull down reduced to” value is reported as 8–9%. For the same molecule, the IC50 in experiment [1] (His-tagged IL-1RAcP pull-down, IL-1β western blot band intensity relative to positive control, non-linear regression of dose response, read-out: IC50, inhibition of IL-1β complex formation) turned out to be 0.304 nM. Moreover, in experiment [1], the “IL-1β pull down inhibition” value is listed as “higher than 45%”.

B1: Peptide 1.0 (peptide)
peptide: TINESISHSRTEDETRTQILS
notes: Linear, 21 residues; also called parent Peptide 1.0; lead peptide; source: synthetic peptide (Peptide 2.0, Inc; Fmoc/tBu solid phase, RP-HPLC to 98% purity)
For B1, the “% IL-1β pull down with IL-1RAcP relative to no peptide (peptide at 12.5 nM)” value with interleukin 1β (IL-1β) [3] turned out to be 60%.

B2: Peptide 3.0 (peptide)
peptide: TINESISHSRTEDETRMQILS
notes: IL-1RAcP stretch around Arg286 with methionine at 293; source: synthetic peptide (Peptide 2.0, Inc; Fmoc/tBu solid phase, RP-HPLC to 98% purity)
Turning to B2, in the experiment with interleukin 1β (IL-1β) [4], the “HEK-Blue IL-1β reporter cells (SEAP), inhibition of IL-1β signalling at 2 µM peptide, difference from Peptide 1.0; blocks formation of the IL-1β complex with IL-1RI and IL-1RAcP” value was determined as 54%. This molecule also displayed an IC50 with interleukin 1β (IL-1β) [3] of 0.303 nM.

B3: Peptide 1.2 (peptide)
peptide: TCNESISHSRTEDETRTQCLS
modifications: disulfide 2-19
notes: IL-1RAcP stretch around Arg286 with two isoleucines replaced by cysteine; source: synthetic peptide (Peptide 2.0, Inc; Fmoc/tBu solid phase, RP-HPLC to 98% purity)
As to B3, in the experiment with interleukin 1β (IL-1β) [4], the “HEK-Blue IL-1β reporter cells (SEAP), inhibition of IL-1β signalling at 2 µM peptide, difference from Peptide 1.0; blocks formation of the IL-1β complex with IL-1RI and IL-1RAcP” value turned out to be 28%. In the experiment with interleukin 1β (IL-1β) [3], the “% IL-1β pull down with IL-1RAcP relative to no peptide (peptide at 0.4 nM)” value was found to be 60%, the “% IL-1β pull down with IL-1RAcP relative to no peptide (peptide at 4 nM)” value amounted to 51% and the “% IL-1β pull down with IL-1RAcP relative to no peptide (peptide at 40 nM)” value amounted to 35%.

B4: Peptide 4.2 (peptide)
peptide: TCNQSISHSRTQNQTRTQCLS
modifications: disulfide 2-19
notes: IL-1RAcP stretch around Arg286 with two cysteines for isoleucines and Gln/Asn for Glu/Asp; source: synthetic peptide (Biomatik; Fmoc/tBu solid phase, RP-HPLC to 98% purity)
For the molecule B4, in the experiment with interleukin 1β (IL-1β) [4], the “HEK-Blue IL-1β reporter cells (SEAP), inhibition of IL-1β signalling at 2 µM peptide, difference from Peptide 1.0; blocks formation of the IL-1β complex with IL-1RI and IL-1RAcP” value came out at 42%. Moreover, in the experiment with interleukin 1β (IL-1β) [3], the “% IL-1β pull down with IL-1RAcP relative to no peptide (peptide at 40 nM)” value is 36%.

For orientation: IC50 means the concentration that gives 50% inhibition.

These data come from paper PMC7886681, “Characterization and Validation of Arg286 Residue of IL-1RAcP as a Potential Drug Target for Osteoarthritis” (Frontiers in Chemistry, 2021).
